Experimental data: ChEMBL document CHEMBL3616375, “Novel 11β-HSD1 inhibitors: C-1 versus C-2 substitution and effect of the introduction of an oxygen atom in the adamantane scaffold” (Bioorg Med Chem Lett, 2015)
pIC50: −log10 of the molar value.

Molecular target: 11-beta-hydroxysteroid dehydrogenase 1 (Homo sapiens, UniProt P28845)
Experiment: Inhibition of 11beta-HSD1 in human mixed sex human liver microsomes assessed as reduction in conversion of [3H]-cortisone to [3H]-cortisol pre-incubated for 15 mins before [3H]-cortisone addition in presence of NADPH by scintillation proximity assay

11-beta-hydroxysteroid dehydrogenase 1, sequence (P28845 whole entry): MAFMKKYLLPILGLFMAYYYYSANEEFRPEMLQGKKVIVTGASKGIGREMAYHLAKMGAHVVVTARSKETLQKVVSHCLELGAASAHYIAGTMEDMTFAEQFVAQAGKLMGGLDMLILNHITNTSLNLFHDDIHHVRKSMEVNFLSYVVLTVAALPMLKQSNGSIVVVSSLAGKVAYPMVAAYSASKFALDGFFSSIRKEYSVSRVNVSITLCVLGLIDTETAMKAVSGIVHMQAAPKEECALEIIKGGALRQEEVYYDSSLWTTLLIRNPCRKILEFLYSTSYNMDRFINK

pIC50: 7.07
SMILES: O=C(NC1C2CC3CC(C2)CC1C3)C1CCCCC1 (stereo unspecified)
